Usually CC50 stands for the concentration giving 50% cytotoxicity. Higher therefore signals better tolerance by the cells. As usually defined, the IC50 is the concentration that inhibits the measured activity by half.

One data set concerns the target T1, DENV2 NS2B–NS3 protease (Dengue virus type 2, UniProt P14340).
T1 construct: Activity of recombinant dengue 2 virus NS3 protease in the presence of a truncated NS2B co-factor; The N-terminal domain of NS3 contains a highly conserved protease-active core; made in house; host or cells: Escherichia coli BL21(DE3)
In words: NS2B–NS3 protease steady-state kinetics and mode of inhibition. Conditions: for mode of inhibition: both Km and Vmax reduced, Lineweaver–Burk plot; for Vmax: increasing substrate concentrations. The format is biochemical. As to the method:
As 3au and 3aq compounds emerged as the two most promising candidates, we characterized their NS2B–NS3 inhibitory activity in greater detail using the previously mentioned DENV NS2B–NS3 protease assay (Fig. 3D) ([39], [41]). Experiments were performed to determine the kinetic parameters, inhibition constants, and inhibition mechanisms of these compounds. Enzymatic activity and corresponding reaction velocity were measured with various substrate concentrations either in presence of the vehicle control or two different concentrations of compounds. Several inhibitory mechanisms, including competitive, uncompetitive, and mixed/non-competitive mechanisms, were explored for each compound. […] The double reciprocal plot (Lineweaver–Burk plot) ( Fig. 5C and D) also validates the mode of enzymatic inhibition against DENV NS2B–NS3 protease.
The selected compounds were analyzed using in vitro protease assays performed in black 96-well plates. Standard reaction mixtures (60 µL) containing 50 mM Tris·HCl (pH 8.5), 1 mM CHAPS, 20% glycerol, 10 nM DENV2 NS2B–NS3 protease, 10 µM inhibitor (dissolved in DMSO) or DMSO, and 10.0 µM tetra-peptide substrate trifluoroacetate-Nle-Lys-Arg-Arg-AMC (ALFA Chemicals) were added to the reaction mixture and incubated for 1 h at room temperature. All assays were performed in triplicate. The release of free AMC was measured using a Varioskan LUX multimode microplate reader (Thermo Fisher Scientific) at excitation and emission wavelengths of 380 and 460 nm, respectively. Control fluorescence values obtained in the absence of inhibitors were considered 100%, and those obtained in the presence of inhibitors were calculated as the percentage of inhibition of the control using Microsoft Excel and plotted using Origin Pro 2023b. The background AMC in the absence of protease was subtracted before data analysis. Further, protease assay was done using different concentration of the compounds (1, 10, and 100 µM) to evaluate the IC50 for the in vitro assay. IC50 curves were fitted and determined by fitting the nonlinear equation in Origin2023b software. A similar approach was used to analyze the enzymatic kinetics of protease inhibition. The reaction progress was monitored by the release of free aminomethylcoumarin (AMC), as previously described. The substrate was incubated with or without the inhibitor in the aforementioned reaction buffer in the presence of varying concentrations of the substrate. The reactions were initiated by the addition of the NS2B–NS3 protease. Protease activity was monitored for 1 h based on the initial rate of increase in fluorescence intensity at 460 nm, with an excitation wavelength of 380 nm. The results were analyzed using Origin Pro 2023b and the Michaelis–Menten equation to obtain the apparent Michaelis–Menten constants and maximal velocities. All assays were performed in triplicate. For each tested compound, […] different concentrations of the inhibitor (0, 10, and 25 µM) were used at various concentrations (0–250 μM) of the substrate. The mechanism of inhibition was determined by observing the deviations in the apparent Km and Vmax values.

A further data set deals with BHK-21 cells. The data set can be described thus: MTT cytotoxicity assay in BHK-21 cells. The format is cell-based, hamster. As to conditions: 24 h. Here is the method: (§1) First, cytotoxic impact of these compounds was evaluated using MTT assay. […] Subsequently, we evaluated the effectiveness of these compounds in inhibiting DENV2 replication. BHK-21 cells were infected with the virus in presence of increasing concentration of these compounds, and harvested at 24 hpi. The virus replication rate was assessed by quantifying the copy number of viral genomic RNA using quantitative real-time PCR (qRT-PCR).
(§2) The MTT assay was performed to determine cellular metabolic activity as an indicator of cell viability, proliferation, and cytotoxicity. Thus, to determine whether these compounds had any toxic effects on cellular viability, an MTT assay was performed following the protocol described previously by Mosmann (1983) ([55], [56]). Briefly, BHK-21 and SH-SHY5Y cells were seeded into 96-well plates at a density of 20,000 cells/well. Almost 16–18 h later, the cells were treated with different concentrations of the compounds (3au and 3aq) for 24 h at 37 °C in 5% CO2. Thereafter, the medium was aspirated, and 100 µL of MTT reagent (5 mg/mL, SRL) in PBS was added to the cells and incubated for 3 h at 37 °C. Formazan crystals were formed in each well and resuspended in 100 µL of dimethyl sulfoxide (DMSO) (Sigma, USA) at room temperature for 20 min to completely dissolve the crystals. The absorbance of the solution in a 96-well plate was measured at 595 nm using a microplate reader (Epoch 2; BioTek Instruments). Each experiment was performed in triplicate, and the percentage of cell viability was determined as the ratio of the absorbance values of the experimental samples to the control solvent (DMSO) on the same plate.
(In general: Tetrazolium dyes change colour on reduction, which living cells bring about.)

Data set [1] in a line: MTT cytotoxicity assay in BHK-21 cells. The format is cell-based, hamster. As to conditions: hamster. Here is the method:
as §1, §2

The test system of the next data set is JEV. In words: JEV progeny virus titer in BHK-21 supernatant (TCID50 assay). The data set is classed as cell-based. Conditions: BHK-21, read-out: IC50 of viral titer reduction (called TCID50 in the source). As to the method:
To this end, we assessed the antiviral activity of shortlisted compounds by evaluating their ability to inhibit progeny virus production. BHK-21 cells were infected with DENV2 and JEV (MOI: 0.1) in the presence of different concentrations of 3aq or 3au or with DMSO, and viral titer was determined in the supernatants harvested at 18 hpi. Compound 3aq caused the maximum reduction of viral titer showing TCID50 of 5.18 ± 0.87 and 2.29 ± 0.50 µM against DENV2 and JEV, respectively (Fig. 8B and D).
During DENV2 and JEV infection, the viral supernatant was collected and used in the TCID50 assay to determine the viral titer. Then, 3 × 10^4 BHK-21 cells per well were seeded in a 96-well cell culture microtiter plate the day before titration. The virus stock was diluted with infection media (DMEM + 2% FBS) to attain virus dilutions of 1 × 10^−2 to 6.4 × 10^−7 in 12 parallels, with the last column of the 96-well plate serving as virus-free cell control. On the day of the assay, when the cell had reached 90%–95% confluency, the growth medium was aspirated using a multichannel pipette, and 100 µL of virus inoculum of different dilutions was transferred to each well, keeping the last well only in infection media without virus. The cells were then incubated at 37 °C in a humidified 5% CO2 chamber. […] TCID50 was calculated using the Spearman and Karber methods.

T1 sequence (P14340 1476-1653): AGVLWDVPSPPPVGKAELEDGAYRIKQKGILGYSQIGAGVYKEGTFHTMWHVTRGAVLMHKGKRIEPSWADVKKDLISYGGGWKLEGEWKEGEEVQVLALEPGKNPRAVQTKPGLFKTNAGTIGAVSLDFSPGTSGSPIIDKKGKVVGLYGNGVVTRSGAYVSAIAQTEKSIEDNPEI
T1 sequence (P14340 1398-1437): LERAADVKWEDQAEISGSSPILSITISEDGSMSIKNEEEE

Consider `COc1ccc(-c2csc(N/N=C(\C)c3cc(O)cc(O)c3)n2)cc1` [3au], for which the mode of inhibition entry on DENV2 NS2B–NS3 protease is recorded as “uncompetitive”. Besides, the Vmax at DENV2 NS2B–NS3 protease (inhibitor 10 μM) was 38.9 ± 1.9; at DENV2 NS2B–NS3 protease (inhibitor 25 μM), 21.4 ± 0.7. For the same compound, the non-toxic concentration result in the data set with BHK-21 cells is reported as “up to 25 µM”. The same compound returned a CC50 at 24 h in data set [1] of 76.6 ± 2.74 µM. The IC50 in the data set on JEV is 2.72 ± 0.24 µM.

Take `COc1ccc(-c2csc(N/N=C(\C)c3ccc(O)cc3)n2)cc1` [3aq]: the mode of inhibition entry at DENV2 NS2B–NS3 protease is “uncompetitive”. Also, the Vmax on DENV2 NS2B–NS3 protease (inhibitor 10 μM) is listed as 52.1 ± 3.3; on DENV2 NS2B–NS3 protease (inhibitor 25 μM), 18.4 ± 0.9. Also, the non-toxic concentration entry in the data set with BHK-21 cells is listed as “up to 25 µM”. For the same compound, in data set [1], the CC50 at 24 h was found to be 82 ± 2.38 µM. Further, the half-inhibitory concentration (IC50) in the data set with JEV stood at 2.29 ± 0.5 µM.

The record behind these values is PMC11963559, “Identification of novel thiazole derivatives as flaviviral protease inhibitors effective against Dengue (DENV2) and Japanese encephalitis viruses” (Antimicrobial Agents and Chemotherapy, 2025).
